Source: patent publication US20110257144A1 (APEX LABORATORIES PRIVATE LIMITED, priority 2008, published 2011)

Assays:
[1] = system: Staphylococcus aureus; test: In vitro antimicrobial zone of inhibition study; format: cell-based
Method: API-stability experiments were carried out (see tables 4-14) using the product of the present invention and products currently commercially available. Tests were carried out to observe (or measure as appropriate) the physical appearance of the product, the pH value and assay of the API over a period of time. Tests were also carried out to assess the stability by subjecting the product to stress studies such as autoclave test and oxydative degradation test. Further, in vitro antimicrobial zone of inhibition studies were also carried out over a period of time. […] The antimicrobial/antibacterial activity of the product is confirmed by the in vitro Antimicrobial Zone of Inhibition studies for the product against Staphylococcus aureus. The details of the studies are detailed below in Table 15.

[2] = Stability of raw API after 3 months in open and closed Petri dish, stability-indicating HPLC method and titration method; format: physicochemical; settings: for Percentage Drop (%) HPLC: after 3 months; for *Initial (%): assay at the time of receipt of the API from the supplier
Method: Degradation due to oxidation is a major cause of instability of currently available Fusidic acid creams. […] It can be observed from Tables 1 and 2 that: • In the case of Fusidic Acid, there is about 7.7% loss in 3 Months at room temperature (open condition) and about 11% loss in 3 Months at 45° C. […] (open condition).

Percentage Drop (%) HPLC ([2]; 45° C. (Open) Petri dish)	Percentage Drop (%) HPLC ([2]; RT (Open) Petri dish)	*Initial (%) ([2]; listed as FUSIDIC ACID BP)	stability as an API (comparison) ([2]; Sodium Fusidate versus Fusidic acid, Tables 1 and 2)	*Initial (%) ([2]; listed as Sodium Fusidate BP)	SMILES	Inference ([1]; dose 10 mcg)	Zone Diameter Range (mm) ([1]; dose 10 mcg)	Inference ([1]; dose 20 mcg)	Zone Diameter Range (mm) ([1]; dose 20 mcg)	Inference ([1]; dose 50 mcg)	Zone Diameter Range (mm) ([1]; dose 50 mcg)	Inference ([1]; dose 10 Units)	Zone Diameter Range (mm) ([1]; dose 10 Units)
about 11%	about 7.7%	100.6			CC(=O)O[C@H]1C[C@@]2(C)[C@@H](C[C@@H](O)[C@H]3[C@@]4(C)CC[C@@H](O)[C@@H](C)[C@@H]4CC[C@@]32C)/C1=C(\CCC=C(C)C)C(=O)O [Fusidic acid]	Sensitive	21-33 mm	Sensitive	20-30 mm	Sensitive	25-32 mm		
					CC1(C)S[C@@H]2[C@H](NC(=O)Cc3ccccc3)C(=O)N2[C@H]1C(=O)O [Penicillin G]							Resistant	21-27 mm
about 6%	about 2.5%		more stable than Fusidic acid	98.7	CC(=O)O[C@H]1C[C@@]2(C)[C@@H](C[C@@H](O)[C@H]3[C@@]4(C)CC[C@@H](O)[C@@H](C)[C@@H]4CC[C@@]32C)/C1=C(\CCC=C(C)C)C(=O)O [Sodium Fusidate]								
